Test results as given in publication PMC8119466, “A screen of FDA-approved drugs identifies inhibitors of protein tyrosine phosphatase 4A3 (PTP4A3 or PRL-3)” (Scientific Reports, 2021).
Counter-ions that a name gives are not always drawn.

Tests used:
Type in all cases: biochemical
Conditions in all cases: FDA-approved drug screen
[1] = molecular target: T1, recombinant PRL-1 (Homo sapiens, UniProt Q93096); assay: In vitro phosphatase assay (DiFMUP hydrolysis), PRL-1; note: test concentration or dose not given here
T1 construct: 6xHis (N, cleaved yes); made in house; host or cells: E. coli One Shot BL21 Star
T1 sequence (Q93096 1-173): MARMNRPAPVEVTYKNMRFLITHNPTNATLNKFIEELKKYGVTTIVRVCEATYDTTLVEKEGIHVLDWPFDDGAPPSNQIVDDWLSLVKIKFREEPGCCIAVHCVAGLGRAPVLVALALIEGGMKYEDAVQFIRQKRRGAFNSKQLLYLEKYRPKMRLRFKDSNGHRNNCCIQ

[2] = molecular target: T2, recombinant PRL-3 (Homo sapiens, UniProt O75365); assay: In vitro phosphatase assay (DiFMUP hydrolysis), PRL-3; note: test concentration or dose not given here
T2 construct: 6xHis (N, cleaved yes); made in house; host or cells: E. coli One Shot BL21 Star
T2 sequence (O75365 whole entry): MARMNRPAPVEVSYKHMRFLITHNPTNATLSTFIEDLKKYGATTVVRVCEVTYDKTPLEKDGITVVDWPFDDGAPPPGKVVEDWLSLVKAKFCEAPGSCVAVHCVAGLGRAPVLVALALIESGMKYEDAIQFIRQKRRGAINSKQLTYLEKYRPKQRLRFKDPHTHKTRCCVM

[3] = molecular target: T3, recombinant PRL-2 (Homo sapiens, UniProt Q12974); assay: In vitro phosphatase assay (DiFMUP hydrolysis), PRL-2;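 note: PRL-2 activity read as DiFMUP hydrolysis after 20 min at room temperature with drug, enzyme first pre-reduced at 4 °C for 20 min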
T3 construct: 6xHis (N, cleaved yes); made in house; host or cells: E. coli One Shot BL21 Star
T3 sequence (Q12974 1-167): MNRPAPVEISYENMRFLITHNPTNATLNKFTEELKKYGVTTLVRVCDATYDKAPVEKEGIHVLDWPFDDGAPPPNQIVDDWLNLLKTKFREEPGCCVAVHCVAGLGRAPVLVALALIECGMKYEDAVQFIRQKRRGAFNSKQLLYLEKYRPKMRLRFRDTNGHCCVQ

| Compound | % Phosphatase Activity (compared to DMSO) PRL-1 ([1]; compared to DMSO) [%] | % Phosphatase Activity (compared to DMSO) PRL-3 ([2]; compared to DMSO) [%] | % Phosphatase Activity (compared to DMSO) PRL-2 ([3]; compared to DMSO) [%] | % Phosphatase Activity (compared to DMSO) PRL-1 ([1]; activity compared to DMSO) [%] | % Phosphatase Activity (compared to DMSO) PRL-3 ([2]; activity compared to DMSO) [%] | % Phosphatase Activity (compared to DMSO) PRL-2 ([3]; activity compared to DMSO) [%] |
| --- | --- | --- | --- | --- | --- | --- |
| O=C(O)c1cn(-c2ccc(F)cc2)c2cc(N3CCNCC3)c(F)cc2c1=O [Sarafloxacin HCl] | 108 | 116 | 108 |  |  |  |
| Oxytocin (Syntocinon) | 82 | 81 | 68 |  |  |  |
| OC[C@H]1O[C@@H](c2ccc(Cl)c(Cc3ccc(O[C@H]4CCOC4)cc3)c2)[C@H](O)[C@@H](O)[C@@H]1O [Empagliflozin (BI 10773)] | 109 | 97 | 93 |  |  |  |
| CC(=O)S[C@@H]1CC2=CC(=O)CC[C@]2(C)[C@H]2CC[C@@]3(C)[C@@H](CC[C@@]34CCC(=O)O4)[C@H]12 [Spironolactone] |  |  |  | 84 | 68 | 87 |
| CC(C)[N+]1(C)[C@@H]2CC[C@H]1C[C@@H](OC(=O)C(CO)c1ccccc1)C2 (stereo partly drawn) [Ipratropium Bromide] | 103 | 83 | 93 |  |  |  |
| NC(CO)C(=O)NNCc1ccc(O)c(O)c1O (stereo not drawn) [Benserazide HCl] | 103 | 68 | 99 |  |  |  |
| CC(=O)[C@H]1CC[C@H]2[C@@H]3C=CC4=CC(=O)CC[C@@]4(C)[C@@H]3CC[C@]12C [Dydrogesterone] | 91 | 67 | 98 |  |  |  |
| CC[C@H]1OC(=O)[C@H](C)[C@@H](O[C@H]2C[C@@](C)(OC)[C@@H](O)[C@H](C)O2)[C@H](C)[C@@H](O[C@@H]2O[C@H](C)C[C@H](N(C)C)[C@H]2O)[C@](C)(O)C[C@@H](C)C(=O)[C@H](C)[C@@H](O)[C@]1(C)O [Erythromycin] | 91 | 79 | 93 |  |  |  |
| C[C@H](NC(=O)C(=O)Nc1ccccc1C(C)(C)C)C(=O)N[C@@H](CC(=O)O)C(=O)COc1c(F)c(F)cc(F)c1F [Emricasan] | 95 | 95 | 72 |  |  |  |
| CN1CC(=O)N2[C@H](c3ccc4c(c3)OCO4)c3[nH]c4ccccc4c3C[C@@H]2C1=O [Tadalafil] |  |  |  | 109 | 82 | 97 |
| O=C(/C=C/c1cccc(S(=O)(=O)Nc2ccccc2)c1)NO [Belinostat (PXD101)] | 98 | 80 | 104 |  |  |  |
| CC(=O)OC1CN2CCC1CC2 (stereo not drawn) [Aceclidine HCl] | 97 | 85 | 95 |  |  |  |
| Cc1ccc(-n2nc(C(C)(C)C)cc2NC(=O)Nc2ccc(OCCN3CCOCC3)c3ccccc23)cc1 [BIRB 796 (Doramapimod)] | 108 | 98 | 106 |  |  |  |
| CN1CCN(C2=Nc3ccccc3Oc3ccc(Cl)cc32)CC1 [Loxapine Succinate] | 96 | 90 | 110 |  |  |  |
| CC(O)C(=O)O.CC(O)C(=O)O.CN1CCN(c2ccc3nc(-c4c(N)c5c(F)cccc5[nH]c4=O)[nH]c3c2)CC1 [Dovitinib (TKI-258) Dilactic Acid] | 92 | 91 | 80 |  |  |  |
